“Also recorded” adds a separate entry of the source.
Key:
OAT1 = target: T1, OAT1 (Homo sapiens, UniProt Q4U2R8); assay: transporter inhibition, HEK293 cells, probe accumulation; format: in vitro ADME
T1 construct: expressed in transfected cells; host or cells: HEK293 cells
T1 sequence (Q4U2R8 1-563): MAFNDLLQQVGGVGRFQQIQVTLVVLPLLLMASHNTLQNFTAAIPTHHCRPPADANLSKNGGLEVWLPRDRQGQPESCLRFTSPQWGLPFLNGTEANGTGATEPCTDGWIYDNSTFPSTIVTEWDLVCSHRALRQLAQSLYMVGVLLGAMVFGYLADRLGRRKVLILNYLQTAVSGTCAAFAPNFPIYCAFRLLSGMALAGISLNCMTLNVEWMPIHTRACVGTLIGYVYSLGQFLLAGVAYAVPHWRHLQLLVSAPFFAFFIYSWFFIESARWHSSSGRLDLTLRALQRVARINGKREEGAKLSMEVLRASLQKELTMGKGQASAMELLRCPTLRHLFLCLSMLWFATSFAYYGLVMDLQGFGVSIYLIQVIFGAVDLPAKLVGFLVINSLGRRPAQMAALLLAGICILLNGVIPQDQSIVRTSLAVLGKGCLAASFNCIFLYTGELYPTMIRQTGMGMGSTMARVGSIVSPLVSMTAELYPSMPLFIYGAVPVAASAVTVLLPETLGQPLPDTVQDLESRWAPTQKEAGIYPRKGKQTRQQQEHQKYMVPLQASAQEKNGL

[1] = tested on: incision-induced hyperalgesia; assay: Brennan incisional model, prophylactic paradigm; format: in vivo, rat
Excerpt: Two incisional pain models were used to assess Compound 1 effects on hyperalgesia. The first model is referred to as the Brennan model in which, under anesthesia, a 1 cm longitudinal incision to the skin and underlying fascia of a rat hindpaw is made. The second is a variation but is a more invasive procedure in which the skin and muscle are spread apart using forceps which creates a longer-lasting hypersensitivity.
Using the Brennan protocol and a prophylactic paradigm, Compound 1 (3 doses given PO) or vehicle was administered 15 min prior to incision. At the 24-, 48-, and 72-h time points post-incision, mechanical thresholds were obtained (manual von Frey filament, using up/down method).
In a subsequent experiment, the same paradigm was used with Compound 1 administered at a dose of 30 mg/kg PO along with positive control group consisting of celecoxib (30 mg/kg PO), morphine (10 mg/kg SC), and vehicle.

Q: For CC1(C)SC(Nc2ccccc2O)=N[C@@H]1C(=O)O.Cl [Compound 1, (R)-2-(2-hydroxyphenylamino)-5,5-dimethyl-4,5-dihydrothiazole-4-carboxylic acid mono-hydrochloride], which “inhibition” value (OAT1) is on record?
A: Its value is “does not inhibit”.

Q: And the “hyperalgesia, effect relative to vehicle” value ([1]; 10 mg/kg PO single dose 15 min prior to incision, mono-hydrochloride)?
A: Its value is “statistically significant reversal of hyperalgesia; also recorded: statistically significant effect”.

Q: And the “hyperalgesia, effect relative to vehicle” value ([1]; 30 mg/kg PO single dose)?
A: Its value is “full efficacy”.

Q: What about the “hyperalgesia, mechanical thresholds (von Frey) relative to vehicle” value ([1]; 3 doses PO, 15 min prior to incision, 24, 48, 72 h post-incision) of the same molecule?
A: The value was “reversal of hyperalgesia in a dose-dependent manner”.
